Experimental data as given in US20220395522A1, “Methods of Use of Glucosamine for Increasing Nitrogen Retention” (TSI Bioproducts (Xuzhou) Co., Ltd., priority 2021, published 2022).

Experiments:
[1] = Body mass, heart rate and blood pressure in randomized, double-blind, placebo-controlled, cross-over supplementation study; format: in vivo, human; conditions: GLU condition, mean ± SD
Method: A randomized, double-blind, placebo-controlled, cross-over study design was conducted on healthy males and females. Participants were instructed to report to a laboratory after observing an overnight (8 to 10-hour) fast while maintaining adequate hydration. Participants were asked to abstain from exercise and avoid alcohol and caffeine consumption for 12 hours prior to each study visit. All participants first completed an initial eligibility visit during which a comprehensive medical history, consent document, and body mass index (BMI) assessment were completed. Results from the BMI assessment was used to finalize eligibility. Once deemed eligible, participants were provided with supplies to begin the study protocol.
(§1) The remainder of the study consisted of two identical patterns of testing with the exception of what supplementation protocol was followed. FIG. 1 provides a flowchart of the experimental design. Prior to each visit, food and physical activity logs were completed encompassing four days prior to the scheduled laboratory visit. The four days consisted of two weekend days and two weekdays. Each participant reported to the laboratory for a baseline measurement of height, weight, heart rate, and blood pressure. During this visit, participants completed the Bristol Stool Chart and Gastrointestinal Symptom Rating Scale (GSRS) to assess bowel habits and potential gastrointestinal symptoms. Participants were given instructions on how to collect a stool sample and were instructed to do so within 24 hours of each planned study visit. At the completion of this study visit, participants were provided with their first assigned supplement (either PLA [placebo] or GLU [glucosamine]) and instructed to begin supplementation 21 days prior to their second visit. Participants were instructed to collect their second stool sample on the day of their final supplementation dose. On the morning of their second study visit, participants reported to the laboratory after following identical pre-study instructions as previous visits (i.e., fasting, abstention from caffeine and exercise). Study participants again completed assessments for height, weight, heart rate, blood pressure, and questionnaires regarding their bowel habits and gastrointestinal symptoms while also providing their second stool sample and turning in completed food and activity logs. A washout period lasting a minimum of 14 days and a maximum of 21 days separated each phase of the crossover as shown in FIG. 1.
In a double-blind manner, a glucosamine supplement (GLU) or a maltodextrin placebo (PLA) was distributed in identical opaque capsules to all participants. On a daily basis, participants were instructed to ingest three capsules, each containing 1,000 mg of glucosamine hydrochloride (GlucosaGreen®, TSI Group Ltd. MT, USA) or a placebo (maltodextrin) identical in appearance for a total of 21 days. Each visit at the beginning of the supplementation regimen (Visits 1 and 4, respectively; See FIG. 1) occurred on or before the first day of supplementation while the final day of supplementation occurred the day before each participant's follow-up visit for that study period (Visits 2 and 4, respectively). Participants were instructed to ingest the supplement 15-30 minutes before breakfast with eight fluid ounces of cold water. In the case of a missed dose, participants were instructed to consume the missed dose as soon as possible with a meal. […] The dose of maltodextrin used in the following examples was two to five-fold lower, respectively, than these investigations.
Height and weight were measured for every participant without shoes and in minimal clothing using a standardized wall-mounted stadiometer (Tanita, model #HR-200, Tokyo, Japan) and a self-calibrating digital scale (Tanita, model #BWB-627A Class III, Tokyo, Japan). Prior to heart rate and blood pressure measurements, participants rested in a seated position for five minutes. […]

Bristol Stool Chart = format: in vivo, human; conditions: for Bristol Stool: GLU condition, mean ± SD
Description: as §1, with “1. […] In a double-blind manner, a glucosamine supplement (GLU) or a maltodextrin placebo (PLA) was distributed in identical opaque capsules to all participants. On a daily basis, participants were instructed to ingest three capsules, each containing 1,000 mg of glucosamine hydrochloride (GlucosaGreen®, TSI Group Ltd. MT, USA) or a placebo (maltodextrin) identical in appearance for a total of 21 days. Each visit at the beginning of the supplementation regimen (Visits 1 and 4, respectively; See FIG. 1) occurred on or before the first day of supplementation while the final day of supplementation occurred the day before each participant's follow-up visit for that study period (Visits 2 and 4, respectively). Participants were instructed to ingest the supplement 15-30 minutes before breakfast with eight fluid ounces of cold water. In the case of a missed dose, participants were instructed to consume the missed dose as soon as possible with a meal. […]” for “1.”

[2] = Post 21 days, 3 x 1,000 mg/day oral

SMILES: Cl.N[C@H]1C(O)O[C@H](CO)[C@@H](O)[C@@H]1O (stereo partly shown) [GLU, glucosamine hydrochloride]
- Diastolic BP [1, 2]: 77.0 ± 9.8 mmHg
- Heart Rate [1, 2]: 63.1 ± 8.1 beats/min
- Systolic BP [1, 2]: 119.4 ± 10.8 mmHg
- Diastolic BP ([1]; Pre (baseline)): 73.9 ± 9.3 mmHg
- Heart Rate ([1]; Pre (baseline)): 66.8 ± 7.7 beats/min
- Systolic BP ([1]; Pre (baseline)): 121.7 ± 14.2 mmHg
- Bristol Stool (Bristol Stool Chart; [2]): 3.6 ± 0.8
- Bristol Stool (Bristol Stool Chart; Pre (baseline)): 3.3 ± 0.8
- Bristol Stool, % (Bristol Stool Chart; PLA vs. GLU, between-group): −19.9%
- Changes in Bristol Stool chart ratings within group (Bristol Stool Chart; Post vs Pre, p=0.10): no significant changes
